Test results from patent publication US6342604B1, “Substitute pyrimidine compounds and the use thereof” (BASF Aktiengesellschaft, priority 1994, dated 2002).
Where two headings read alike, the source gives them in different places.

Molecular target: T1, human D3 receptor (Homo sapiens, UniProt P35462)
T1 construct: host or cells: CCL 1.3 mouse fibroblasts
Experiment: D3 receptor binding assay (125I-iodosulpiride displacement)
Conditions: for Selectivity Ki D2/Ki D3: ratio of Ki D2 (3H-spiperone) to Ki D3 (125I-sulpiride)
Procedure: Cloned human D3 receptor-expressing CCL 1.3 mouse fibroblasts obtained from Res. Biochemicals Internat. One Strathmore Rd., Natick, Mass.
After 48 h, the cells were washed with PBS and incubated with 0.05% trypsin-containing PBS for 5 min. Neutralization with medium was then carried out, and the cells were collected by centrifugation at 300 xg. To lyze the cells, the pellet was briefly washed with lysis buffer (5 mM tris-HCl, pH 7.4, with 10% glycerol) and then incubated in a concentration of 10^7 cells/ml of lysis buffer at 4° C. for 30 min. The cells were centrifuged at 200 xg for 10 min and the pellet was stored in liquid nitrogen.
The non-specific binding was determined using 10^−6 M spiperone.
After 60 min, the free and the bound radioligand was separated by filtration through GF/B glass fiber filters (Whatman, England) on a Skatron cell collector (Skatron, Lier, Norway), and the filters were washed with ice-cold tris-HCl buffer, pH 7.4. The radioactivity collected on the filters was quantified using a Packard 2200 CA liquid scintillation counter.
The Ki values were determined by non-linear regression analysis using the LIGAND program.

[1] = cloned human D3 receptor, CCL 1.3 mouse fibroblast membranes, 0.1 nM 125iodosulpiride, read-out: Receptor binding D3 125I-sulpiride Ki

T1 sequence (P35462 whole entry): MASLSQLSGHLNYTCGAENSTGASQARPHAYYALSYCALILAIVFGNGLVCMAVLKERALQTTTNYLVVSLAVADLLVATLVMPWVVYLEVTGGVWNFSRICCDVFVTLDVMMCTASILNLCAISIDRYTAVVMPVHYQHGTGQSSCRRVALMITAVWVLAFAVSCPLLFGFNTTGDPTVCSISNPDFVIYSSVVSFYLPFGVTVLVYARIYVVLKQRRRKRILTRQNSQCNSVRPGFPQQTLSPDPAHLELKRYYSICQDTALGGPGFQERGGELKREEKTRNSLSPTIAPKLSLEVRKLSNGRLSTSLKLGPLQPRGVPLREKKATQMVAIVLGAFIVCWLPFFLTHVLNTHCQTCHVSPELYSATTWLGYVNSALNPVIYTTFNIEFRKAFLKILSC

Compound	Ki [nM]	Selectivity Ki D2/Ki D3	Ki [1] [nM]
Oc1ccnc(SCCCN2CC=C(c3cccc(C(F)(F)F)c3)CC2)n1 [Example 19]	3	58	
CC(C)c1cccc(N2CCN(CCCSc3nccc(O)n3)CC2)c1 [Example 17]		71	2.8
Oc1ccnc(SCCCN2CCN(c3cccc(C(F)(F)F)c3)CC2)n1 [Example 12]	4.2	85	
Oc1ccnc(SC/C=C/CN2CCN(c3cccc(C(F)(F)F)c3)CC2)n1 [Example 13]		61	2.3
